Test results published in patent US9708370B2, “Azapeptides as CD36 binding compounds” (VALORISATION-RECHERCHE, LIMITED PARTNERSHIP, priority 2007, dated 2017).
Entries after “also recorded” stand apart in the source; their conditions may differ. Starred links: 1 amine or outer side, 2 acyl side, 3 side chain; linkers in the order of their positions; H or OH if unused. Non-standard residues stand in square brackets, D forms with d. Residues, ends and D or L forms follow the SMILES beside them. azaTyr = O=C(N(Cc1ccc(O)cc1)N[*:1])[*:2]

What was measured:
[1] = tested on: vascular sprouting of aortic endothelium (aortic rings); assay: Inhibition of microvascular sprouting from Matrigel-embedded aortic explants; format: cell-based, mice
Text: FIG. 1 illustrates disruption of vascular sprouting of aortic endothelium by azapeptide compound DBG178. Sprouting aortic endothelium (Von Willebrand factor positive) expressing CD36 is shown in the upper row of FIG. 1a. Vascular sprouting of aortic rings from C57BL/6 and CD36 null mice in the presence of DBG 178 at 10^−7M is shown in the lower row of FIG. 1a. Histograms of microvascular sprouts areas (mean±s.e.m) from aortic explants of C57BL/6 and CD36 null mice exposed to DBG concentrations from 10^−8 to 10^−6 M p<0.01 compared with control (Ctl) is shown in FIG. 1b.
Aortas were excised from 10-week-old male C57/Bl6+/+ and CD36−/− mice of C57/Bl6 background. The fibroadipose tissue was removed and aortas were sectioned into 2-mm-long cross-sections. The +/+ and −/− rings were covered by 50 μl of Matrigel and cultured for 4 days in EGM-2 medium (Clonetics Corp.). Explants were then exposed to vehicle alone or in presence of an azapeptide prototype DBG178 at the indicated concentrations (10^−8 to 10^−6 M) from day 4 to day 6 of culture in EGM-2 medium. Pictures of each individual explant were taken at day 4 and day 6 and EC growth was measured as the surface covered at day 6 minus the surface covered at day 4 Data were subject to analysis of variance (ANOVA) followed by Dunnet's post test to test for differences among groups. Outgrowing cells were characterized by double-labelling with monoclonal vWF antibody (1:100, Dako) and polyclonal CD36 (1:100, Santa Cruz) after acetone fixation using their respective alexa coupled secondary antibodies.

human GHS-R1a = human GHS-R1a (Homo sapiens (Human), UniProt Q92847); assay: GHS-R1a binding assay, competition with 125I-ghrelin on membranes of LLC-PK1 cells expressing human GHS-R1a
[2] = tested on: laser injury induced choroidal neovascularisation; assay: Inhibition of choroidal neovascularisation in vivo, laser injury model; parameters: species or system mice
Text: The standard model of choroidal neovascularisation is the laser injury induced neovascularisation (47). In this model, which is applicable to rodents and primates, a laser beam is used to disrupt the RPE and the Bruchs membrane that separates the choroidal vasculature from the subretinal space. The following local inflammatory reaction in deep retina and choroid leads to a localized subretinal neovascularisation in a similar manner as that observed in AMD. This local neovascularisation can be quantified on flatmounts of RPE/choroid/sclera. The antiangiogenic effect of DBG178 on subretinal neovascularisation was tested by injecting intravitreally at effective concentration of 10^−7 to 10^−6 M within the eye and compared to that of intravitreal injection of saline used as a control.
Ten-week old C56/Bl6+/+ and CD36 null mice of C57Bl/6 background were anesthetized by intramuscular injection of ketamine (50 mg/kg) and xylazine (10 mg/kg). Pupils were fully dilated with 1% tropicamide. Coverslips positioned on the mouse cornea were used as a contact glass. Laser-coagulations were performed 1 to 2 disc diameters away from the papillae using an Argon laser (532 nm) mounted on a slit lamp (400 mW, 50 ms and 50 μm). […] The RPE/choroids were radially incised, flatmounted and viewed using a fluorescence microscope (BX51; Olympus). CNV were measured on photographs using Scion image analysis software.

Sequence of human GHS-R1a (Q92847 whole entry): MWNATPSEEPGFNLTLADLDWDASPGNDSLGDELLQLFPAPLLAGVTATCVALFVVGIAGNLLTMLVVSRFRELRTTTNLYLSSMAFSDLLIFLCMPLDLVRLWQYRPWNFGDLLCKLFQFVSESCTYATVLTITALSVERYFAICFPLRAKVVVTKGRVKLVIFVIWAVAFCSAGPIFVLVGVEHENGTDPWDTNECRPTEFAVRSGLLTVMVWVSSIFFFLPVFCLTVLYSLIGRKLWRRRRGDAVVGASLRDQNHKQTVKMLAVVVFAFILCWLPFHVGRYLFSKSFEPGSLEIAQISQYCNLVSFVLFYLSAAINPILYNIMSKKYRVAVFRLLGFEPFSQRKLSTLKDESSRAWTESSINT

IC50 (human GHS-R1a; Table 4, LLCPK-1 membranes overexpressing GHS-R1a, radioiodinated (1-28) rat ghrelin as tracer, read-out: EC50 (text: IC50 values from competition curves in GHS-R1a radioreceptor assay)): 15.7 µM
binding affinity for GHS-R1a receptor in words (human GHS-R1a; compared with GHRP-6): reducing the binding affinity
SMILES: C[C@H](NC(=O)[C@@H](Cc1c[nH]c2ccccc12)NC(=O)[C@@H](N)Cc1cnc[nH]1)C(=O)NN(Cc1ccc(O)cc1)C(=O)N[C@H](Cc1ccccc1)C(=O)N[C@@H](CCCCN)C(N)=O [DBG178p, His-D-Trp-Ala-azaTyr-D-Phe-Lys-NH2] (H-H[dW]A[azaTyr][dF]K-NH2)
inhibition of vascular sprouting of aortic rings ([1]; aortic rings from C57BL/6 mice, 10^−7 to 10^−6 M): disrupt significantly; also recorded: significantly inhibited
inhibitory effect on vascular sprouting of aortic rings ([1]; aortic rings from CD36 null mice): not detected
inhibition of the neovascular response ([2]; C57BL/6 mice, intravitreal injection 3 and 7 days after laser injury, 10^−7 and 10^−6 M within the eye): more than 50%
effect on the neovascular response ([2]; eye of CD36 null mice, intravitreal injection): no effect
